Data reported in PubChem BioAssay AID743304 (Broad Institute, 2014).
Several values for one entry are separate records, joined by “and”; a condition that tells them apart may be missing. Equal values may be shown once. Activity calls are given as the source filed them.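 Rule for the calls: active = signal drop whose fitted half-maximal dose is no more than twice the top valid dose; inconclusive = flat curve with 30 to 70% inhibition, or unreliable fit; inactive = the rest, including rising signal.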

test system: not listed separately; experiment: antifungal growth inhibition under osmotic support – sorbitol, alamar blue, dry powder, set 3, mechanism study for C. neoformans lysis project, dose response (AID 743304); conditions: C. neoformans growth with sorbitol, alamar blue, 24 h; at 35 µM (top of the series)

SMILES | activity change, negative = inhibition
Cc1cccc(OCCn2c(=S)[nH]c3ccc(C(F)(F)F)cc32)c1 | 24.8% (inactive)
Cc1ccc(C(C)C)c(OCCn2c(=S)[nH]c3cc(F)ccc32)c1 | 9.32% (inactive)
Cc1ccc(C(C)C)c(OCCn2c(=S)[nH]c3c(F)cccc32)c1 | 48.2% (inactive)
Cc1ccc(C(C)C)c(OCCn2c(=S)[nH]c3c(Cl)cccc32)c1 | -14.9% (inactive)
Cc1cccc(OCCn2c(=S)[nH]c3cc(C(F)(F)F)ccc32)c1 | 8.97% (inactive)
Cc1ccc(C)c(OCCn2c(=S)[nH]c3ccccc32)c1 | -7.02% (inactive)
Cc1ccc(C(C)C)c(OCCn2c(=S)[nH]c3c(C)cccc32)c1 | 34.1% (inactive)
S=c1[nH]c2cc(Cl)ccc2n1CCOc1ccccc1 | 17.6% (inactive)
c1ccc(OCCn2cnc3ccccc32)cc1 | 39.4% (inactive)
COc1ccccc1OCCn1c(=S)[nH]c2ccccc21 | 36.1% (inactive)
Cc1ccc(OCCn2c(=S)[nH]c3ccccc32)c(C)c1 | 7.99% (inactive)
CC(C)c1ccccc1NCCn1c(=S)[nH]c2ccccc21 | 1.72% (inactive)
Cc1ccc(C(C)C)c(OCCn2c(=S)[nH]c3ccc(Cl)cc32)c1 | 36.9% (inactive)
Cc1ccc(C(C)C)c(OCCn2c(=S)[nH]c3ccc(F)cc32)c1 | 14.7% (inactive)

test system: C. neoformans growth with sorbitol, alamar blue, 24 h; experiment: as above; conditions: not given

SMILES | AC50
CC(C)(C)c1ccccc1OCCn1c(=S)[nH]c2ccccc21 | 8.32 µM
CC(C)(C)c1ccc(OCCn2cnc3ccccc32)cc1 | 8.05 µM
COc1ccc(OCCn2c(=S)[nH]c3ccccc32)cc1 | 26.2 µM
CC(C)(C)c1ccc(OCCn2c(=S)[nH]c3ccccc32)cc1 | 4.94 µM
S=c1[nH]c2cccc(Cl)c2n1CCOc1ccccc1 | 5.74 µM and 5.16 µM
Cc1ccc(OCCn2c(SCCO)nc3ccccc32)c(C(C)C)c1 | 8.48 µM
Cc1ccc(C(C)C)c(OCCn2c(=S)[nH]c3ccccc32)c1 | 6.96 µM and 7.67 µM
S=c1[nH]c2ccccc2n1CCOc1ccccc1 | 24.5 µM
O=c1[nH]c2ccccc2n1CCOc1ccccc1 | 24.1 µM
Cc1cccc(OCCn2c(=S)[nH]c3ccccc32)c1C | 6.75 µM
Cc1ccc(C(C)C)c(OCCn2c(=S)[nH]c3cccc(Cl)c32)c1 | 7.25 µM
Fc1ccccc1OCCn1c(=S)[nH]c2ccccc21 | 21.9 µM
CC(C)c1ccc(OCCn2c(=S)[nH]c3ccccc32)cc1 | 4.21 µM
Cc1ccc(OCCn2c(C)nc3ccccc32)cc1 | 6.48 µM
CCOc1ccc(OCCn2c(=S)[nH]c3ccccc32)cc1 | 11.1 µM
Fc1cccc2c1[nH]c(=S)n2CCOc1ccccc1 | 21.4 µM and 22.2 µM and 23.1 µM
CC(C)c1ccccc1OCCn1c(=S)[nH]c2ccccc21 | 18.4 µM
Cc1ccc(C(C)C)c(OCCn2c(CO)nc3ccccc32)c1 | 33.6 µM
Cc1cccc(OCCn2c(=S)[nH]c3ccccc32)c1 | 22.4 µM

SMILES | AC50
Cc1ccc(OCCn2cnc3ccccc32)c(C(C)C)c1 | 24 µM
Fc1ccc2c(c1)[nH]c(=S)n2CCOc1ccccc1 | 25 µM and 23.1 µM
Cc1ccc2c(c1)[nH]c(=S)n2CCOc1ccccc1 | 11.6 µM and 12.9 µM
Fc1ccc2[nH]c(=S)n(CCOc3ccccc3)c2c1 | 23.5 µM
Cc1ccc(C(C)C)c(OCCn2c(=S)[nH]c3cccc(F)c32)c1 | 10.9 µM
S=c1[nH]c2ccccc2n1CCOc1ccccc1Cl | 24 µM
Cc1ccc(OCCn2cnc3ccccc32)cc1 | 5.96 µM
Fc1ccc(OCCn2c(=S)[nH]c3ccccc32)cc1 | 27.3 µM
Cc1ccc(C(C)C)c(OCCn2c(=S)[nH]c3cccc(C)c32)c1 | 16.4 µM
Cc1ccccc1OCCn1c(=S)[nH]c2ccccc21 | 31.2 µM
Cc1ccc(OCCn2c(=S)[nH]c3ccccc32)cc1 | 6.11 µM
Cc1cccc(OCCn2c(=S)[nH]c3c(F)cccc32)c1 | 16.4 µM and 16.6 µM
S=c1[nH]c2ccccc2n1CCOc1ccc(Cl)cc1 | 6.3 µM
Cc1cccc(OCCn2c(=S)[nH]c3cc(F)ccc32)c1 | 11.2 µM and 10.4 µM
Cc1cccc2[nH]c(=S)n(CCOc3ccccc3)c12 | 14.2 µM
Cc1ccc(OCCn2c(=S)[nH]c3ccccc32)c(C(C)C)c1 | 10.2 µM and 6.37 µM
COc1cccc(OCCn2c(=S)[nH]c3ccccc32)c1 | 26.1 µM
Fc1cccc(OCCn2c(=S)[nH]c3ccccc32)c1 | 20.5 µM
